Patent publication US9487561B2, “Biologically active complex and its preparation” (HAMLET PHARMA AB, priority 2010, dated 2016)

How the values were obtained:
[1] = tested on: A549 lung carcinoma cells; assay: cell death assay (trypan blue exclusion, ATP levels); format: cell-based, human; conditions: 30 minutes pretreatment, HAMLET three hours
Method: (§1) Cells were detached from cell culture flasks with versen (0.2 g EDTA in 200 ml H2O and 800 ml PBS), washed with PBS and resuspended in serum-free RPMI-1640. HAMLET dissolved in PBS was incubated with cells (0.5×10^6/ml for A549, A498 and HeLa cells; 1×10^6/ml for Jurkat) at 37° C. FCS was added after 1 hour. Cell death was quantified by trypan blue exclusion (Chroma Gesellschaft Schmid & Co) or by measuring ATP levels (ATPlite Kit, PerkinElmer, Infinite 200, Tecan). Light images were captured using the HOLOMONITOR™ M2 digital holographic microscope (Phase Holographic Imaging AB, Lund, Sweden).
For studies with inhibitors, cells were pretreated for 30 minutes. Inhibitors used were Gadolinium chloride (GdCl3, 100 μM), Barium chloride (BaCl2, 1 mM), Ruthenium red (30 μM), tetrandrine (10 μM) and amiloride (1 mM), all from Sigma Aldrich. For p38 inhibition, SB202190 (20 μM, Sigma Aldrich) or BIRB796 (10 μM, Axon Medchem) dissolved in DMSO was used. The wells were washed twice with PBS and new medium with inhibitor was added. For RNA interference, FlexiTube siRNA Premixes against MAPK11 (SI00606053), MAPK14 (SI00300769) and All Star Negative Control siRNA (SI03650318) from Qiagen was used. A549 forward was transfected using 25 nM final siRNA concentration in 24-well plate. After 48 hours, knockdown was examined by Western blot (anti-p38, 1:1000, Cell Signaling) and RT-PCR (MAPK14, QT00079345, QIAGEN).
To examine if functional ion channels are important for the tumoricidal activity of HAMLET, A549 lung carcinoma cells in suspension were pretreated with the channel inhibitors for 30 minutes and exposed to increasing concentrations of HAMLET for three hours.
A549 cells were seeded to a density of 0.8-1.0×10^6 cells/well in RPMI without FCS. Different volumes of HAMLET/oleate and oleic acid solutions were added. The cells were incubated for 1 hour at 37° C. 5% CO2 for 1 hour before 50 μl of FCS (5% final concentration) were added to the wells. The cells were then further incubated for additional 2 hours before the viability were determined by trypan blue exclusion and ATP measurements.

[2] = tested on: lung carcinoma, kidney carcinoma and lymphoma cells; assay: HAMLET-induced change in cell morphology (light microscopy, real-time imaging); format: cell-based; conditions: light microscopy
Method: as §1
For live cell imaging, cells were pre-treated with SB202190 for 30 minutes, nuclei were stained with Hoechst 33342 (Invitrogen) and Alexa-Fluor 568-labeled HAMLET (10% labeled HAMLET, Molecular Probes) was added in serum-free medium. FCS was added after 1 hour. Fluorescence was detected with pinhole settings corresponding to 1 airy unit. The cells were kept at 37° C., 5% CO2 and examined unfixed by LSM510 DUO confocal microscopy (Carl Zeiss).
To examine if the HAMLET-induced change in carcinoma cell morphology was modified by the channel inhibitors, lung carcinoma, kidney carcinoma and lymphoma cells were exposed to HAMLET in the presence or absence of ion channel inhibitors and examined by light microscopy (FIG. 2C).
To determine if p38 signaling was involved in cell death, we inhibited p38α and p38β in lung and kidney carcinoma and Jurkat lymphoma cells with two small-molecule p38 inhibitors: SB202190, a highly specific pyridinyl-imidazole inhibitor; and BIRB796, a diaryl urea compound, which bears little structural similarity to SB202190 (Fabian et al., 2005, Nature Biotechnology 23: 329-336), ([…] and FIG. 12B). […] The effect of p38 inhibition on cell death was also observed by real-time confocal imaging of lung carcinoma cells exposed to fluorescently labeled HAMLET.

[3] = tested on: A549 lung carcinoma cells; assay: global transcriptional response, whole genome arrays (Affymetrix); format: cell-based, human; conditions: Example 5, Affymetrix U219, adjusted p-value <0.05 and log 2-foldchange of 1
Method: For the microarray analysis with ion channel inhibitors, 200,000 A549 cells/well were allowed to adhere overnight on a 6-well plate. After 1 hour of HAMLET treatment, the cells were lysed and RNA was extracted using the RNeasy Mini Kit (QIAGEN). The samples were sent to AROS Applied Biotechnology (Århus, Denmark) for analysis. Data was preprocessed using RMA implemented in the free software packages “affy” as provided by R and Bioconductor (<www.r-project.org>). Differentially expressed genes were identified using empirically Bayes adjusted t-statistics and characterized using the Functional Annotation Clustering Tool in the Database for Annotation, Visualization and Integrated Discovery (DAVID), (Dennis et al., 2003 Genome Biology 4(5): P3) and Ingenuity Pathway Analysis (Ingenuity Systems). All microarray data were registered into NCBI's Gene Expression Omnibus (GEO) database (<www.ncbi.nlm.nih.gov/projects/geo>) with accession numbers GSE23772.
To understand the mechanisms of carcinoma cell death and the contribution of ion channel activation, the global transcriptional response to HAMLET was examined, using whole genome arrays. A549 lung carcinoma cells were exposed to HAMLET (21 μM) for one hour and cells pretreated with amiloride were compared to cells in medium alone. […] An unbiased global overview of transcription was obtained by performing a hierarchical clustering of the top 3000 genes by variance and was visualized in a heatmap (FIG. 2D and FIG. 13). Genes with empirical Bayes adjusted p-values <0.05 and log 2 fold changes >1 were considered differentially expressed and were functionally characterized using Database for Annotation, Visualization and Integrated Discovery, (Dennis et al., supra, 2003) and Ingenuity Pathway Analysis.
In total 12 RNA samples were generated (triplicate of control, oleic Acid, HAMLET, and oleate-treated) and hybridized to Affymetrix Whole Genome microarrays U219. […] For statistical analysis normalized data were linear model fitted and Empirical Bayesian analysis, coupled with p-value adjustment, performed.

tumor cells [4] = assay: ion fluxes (Ca^2+, K^+, Na^+) quantified by fluorometry; format: cell-based; conditions: for fluxes of Ca^2+, K^+ and Na^+: FIG. 1B
Method: FIG. 1. […] (A, upper panels) Bright-field micrographs showing glass-adherent egg yolk vesicles before and after a 40-minute exposure to HAMLET, α-lactalbumin (HLA) or oleic acid (OA). Morphology was recorded by differential interference contrast microscopy. Scale bar […]. […] (A, lower panels) Effect of HAMLET on PMVs from lung carcinoma cells. PMVs on glass-bottom dishes were exposed to HAMLET, HLA or OA and stained with Nile red for confocal microscopy. […] As a control PMVs from healthy, differentiated cells on glass-bottom dishes were also exposed to HAMLET and stained with Nile red.
FIG. 7. Ion Fluxes. (A) Ion fluxes induced by HAMLET (35 μM) or it constituents (35 μM All-ala α-lactalbumin or 175 μM sodium oleate) were quantified by fluorometry, as described. […] (B) The global transcriptional response to HAMLET was studied by microarray and the top 3000 genes by variance visualized in a Heatmap. […] Darker bands=high expression, lighter bands=low.
(§2) The FLUXOR™ potassium (K^+) channel assay was performed on the TECAN infinite F200 (Tecan Group, Switzerland), according to the manufacturer's instructions (Invitrogen). Briefly, this involved FLUXOR™ loading buffer (Hank's Balanced Saline Solution, (HBSS) buffered with 20 mM HEPES and pH adjusted to 7.4 with NaOH. POWERLOAD™ concentrate and water-soluble Probenecid were used respectively to enhance the dye solubility and retention, respectively. Media were removed from the cell plates manually, and 80 μL of loading buffer containing the FLUXOR™ dye mix was applied to each well. Once inside the cell, the nonfluorescent AM ester form of the FLUXOR™ dye is cleaved by endogenous esterases into a thallium-sensitive indicator. The dye was loaded for 60 minutes at room temperature and then removed with the supernatant. After washing with dye-free PBS buffer, a final volume of 80 μL assay buffer containing water-soluble probenecid was added. Cells received one of the following channel inhibitors: 3.3 μL per well of 30 mM amiloride, 3.0 μL of 32 mM BaCl2, 1.8 μL of 5.4 mM gadolinium, 3 μL 3.2 mM tetrandrine and 2.3 μL of 2.6 mM ruthenium red, and were then incubated at room temperature (23-25° C.) for 30 minutes to allow equilibration of the test compounds. Prior to injection, stimulation buffer was prepared from the chloride-free buffer and thallium reagents provided in the kit as well as HAMLET, to achieve a final added concentrations of 2 mM free Tl+ and 35 μM HAMLET after 1:5 dilution upon injection of the stimulus buffer onto cells that had been loaded with FLUXOR™ dye.

[5] = tested on: potassium channels in A549, lung carcinoma cell lines; assay: FLUXOR potassium (K^+) channel assay, Thallium (Tl^+) indicator; format: cell-based, human; conditions: HAMLET 35 μM; oleate 175 μM (5× the HAMLET concentration); peptides mixed with oleate and immediately added
Method: as §2
To distinguish Ca^2+ mobilization from intracellular stores from the influx of extracellular Ca^2+, EGTA was then added to the cell medium. […] K^+ fluxes across tumor cell membranes were subsequently quantified under the same experimental conditions, using the fluorophore FLUXOR™, which fluoresces after thallium has entered cells through K^+ channels.
Potassium channel activity was therefore measured in A549, lung carcinoma cell lines using an indicator, which emits fluorescence signal upon entering the cells via opened potassium channels, Thallium (Tl^+) indicator (FIG. 18).

tumor cells [6] = assay: Tumoricidal Activity of Oleate-HAMLET (cell death method of Example 1); format: cell-based
[7] = 35 μM All-ala α-lactalbumin or 175 μM sodium oleate, FIG. 7A

N.N.N.N.N.N.N.N.N.N.N.N.N.N.[Cl-].[Cl-].[Cl-].[Cl-].[Cl-].[Cl-].[O-2].[O-2].[Ru+3].[Ru+3].[Ru+4] [Ruthenium red, ammoniated ruthenium oxychloride]
effect of channel inhibitor on HAMLET-induced cell death [1]: no effect on viability | effect of ion channel inhibitor on HAMLET-induced change in cell morphology [2]: did not prevent the morphological changes

CCCCCCCC/C=C\CCCCCCCC(=O)O [oleic acid, reference compound]
number of differentially expressed genes [3]: two | fluxes of Ca^2+, K^+ and Na^+ (tumor cells [4]): no effect | ion channel activating activity (tumor cells [4]; at concentrations relevant for the HAMLET complex): did not show ion channel activating activity

Alpha 1: α-lactalbumin peptide, residue 1-40 (EQLTKCEVFRELKDLKGYGGVSLPEWVCTTFHTSGYDTQA; UniProt P00711 20-59, looked up, fragment)
potassium channel activity (fluorescence signal) [5]: did not open potassium channels

Alpha 2: α-lactalbumin peptide, residue 81-123 (LDDDLTDDIMCVKKILDKVGINYWLAHKALCSEKLDQWLCEKL; UniProt P00711 100-142, looked up, fragment)
potassium channel activity (fluorescence signal) [5]: did not open potassium channels

Beta: α-lactalbumin peptide, residue 41-80 (IVQNNDSTEYGLFQINNKIWCKDDQNPHSSNICNISCDKF; UniProt P00711 60-99, looked up, fragment)
potassium channel activity (fluorescence signal) [5]: did not open potassium channels

B1: α-lactalbumin: native α-lactalbumin purified from human milk (protein, UniProt P00709 20-142, looked up)
Alpha-lactalbumin: KQFTKCELSQLLKDIDGYGGIALPELICTMFHTSGYDTQAIVENNESTEYGLFQISNKLWCKSSQVPQSRNICDISCDKFLDDDITDDIMCAKKILDIKGIDYWLAHKALCTEKLEQWLCEKL
fluxes of Ca^2+, K^+ and Na^+ (tumor cells [4]): no effect

B2: α-lactalbumin^all-ala mutant: partially unfolded α-lactalbumin with all cysteines mutated to alanine (SEQ ID NO: 1 / 2) (protein)
chain 1: KQFTKAELSQLLKDIDGYGGIALPELIATMFHTSGYDTQAIVENNESTEYGLFQISNKLWAKSSQVPQSRNIADISADKFLDDDITDDIMAAKKILDIKGIDYWLAHKALATEKLEQWLAEKL
chain 2: MKQFTKAELSQLLKDIDGYGGIALPELIATMFHTSGYDTQAIVENNESTEYGLFQISNKLWAKSSQVPQSRNIADISADKFLDDDITDDIMAAKKILDIKGIDYWLAHKALATEKLEQWLAEKL
K^+ fluxes (tumor cells [4]; [7]): comparable to HAMLET | Na^+ or Ca^2+ fluxes (tumor cells [4]; [7]): weaker

B3: Oleate-HAMLET: complex from EDTA treated alphalactalbumin converted on a column conditioned with sodium oleate (protein, UniProt P00709 20-142, looked up)
Alpha-lactalbumin: KQFTKCELSQLLKDIDGYGGIALPELICTMFHTSGYDTQAIVENNESTEYGLFQISNKLWCKSSQVPQSRNICDISCDKFLDDDITDDIMCAKKILDIKGIDYWLAHKALCTEKLEQWLCEKL
modifications: sodium oleate complex
tumoricidal activity compared with OA complex (tumor cells [6]): at least as tumoricidal as the OA complex | Trypan blue (tumor cells [6]; 0.5 mg/ml, Control 88): 1 | ATP Activity (tumor cells [6]; 0.5 mg/ml, Control 100): 27%
